Results from PubChem BioAssay AID330 (DTP/NCI, 2004).
Several values for one entry are separate records, joined by “and”; a condition that tells them apart may be missing. Equal values may be shown once. Inconclusive results and toxic doses are left out. Rule for the calls: active = survival T/C of 150% or more; inactive = T/C below 125% in these data.

Test system: P388 leukemia ip, CD2F1 mice, survival T/C
Experiment: NCI In Vivo Anticancer Drug Screen. Data for tumor model P388 Leukemia (intraperitoneal) in CD2F1 (CDF1) mice
Details: endpoint: median survival time, higher = longer survival
Procedure, shortened: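 Mice carrying the transplanted tumor received test compound or vehicle. Survival was recorded in each group, and the value is the treated-group measurement divided by that of the vehicle-treated control group.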

[1] = dose: 50.0 mg/kg/injection, schedule: Q01DX005 (ip), vehicle: Klucel (hydroxypropylcellulose) (HPC)
[2] = dose: 100.0 mg/kg/injection, schedule: Q01DX005 (ip), vehicle: Klucel (hydroxypropylcellulose) (HPC)
[3] = dose: 200.0 mg/kg/injection, schedule: Q01DX005 (ip), vehicle: Klucel (hydroxypropylcellulose) (HPC)
[4] = dose: 50.0 mg/kg/injection, schedule: Q01DX009 (ip), vehicle: saline with Tween-80
[5] = dose: 100.0 mg/kg/injection, schedule: Q01DX009 (ip), vehicle: saline with Tween-80
[6] = dose: 200.0 mg/kg/injection, schedule: Q01DX009 (ip), vehicle: saline with Tween-80
[7] = dose: 6.25 mg/kg/injection, schedule: Q01DX009 (ip), vehicle: Klucel (hydroxypropylcellulose) (HPC)
[8] = dose: 12.5 mg/kg/injection, schedule: Q01DX009 (ip), vehicle: Klucel (hydroxypropylcellulose) (HPC)
[9] = dose: 12.5 mg/kg/injection, schedule: Q01DX005 (ip), vehicle: Klucel (hydroxypropylcellulose) (HPC)
[10] = dose: 25.0 mg/kg/injection, schedule: Q01DX005 (ip), vehicle: Klucel (hydroxypropylcellulose) (HPC)
[11] = dose: 50.0 mg/kg/injection, schedule: Q04DX002 (ip), vehicle: saline with Tween-80
[12] = dose: 100.0 mg/kg/injection, schedule: Q04DX002 (ip), vehicle: saline with Tween-80
[13] = dose: 200.0 mg/kg/injection, schedule: Q04DX002 (ip), vehicle: saline with Tween-80

Measured: T/C

O=C(C#Cc1ccccc1)C1=Cc2ccccc2OC1
inactive: [1] 94 % of control | [2] 95 % of control | [3] 96 % of control

CC[C@@]12CN3CCc4c([nH]c5ccccc45)[C@@](C(=O)OC)(c4cc5c(cc4OC)N(C=O)[C@H]4[C@@](O)(C(=O)OC)[C@H](OC(C)=O)[C@]6(CC)C=CCN7CC[C@]54[C@@H]76)C[C@H](C3=O)[C@@H]1O2
inactive: dose: 4.0 mg/kg/injection, schedule: Q01DX001 (ip), vehicle: water 113 % of control and 118 % of control | dose: 8.0 mg/kg/injection, schedule: Q01DX001 (ip), vehicle: water 115 % of control and 116 % of control | dose: 32.0 mg/kg/injection, schedule: Q01DX001 (ip), vehicle: water 118 % of control

CC(C)(C)N(N)Cc1ccccc1
inactive: dose: 25.0 mg/kg/injection, schedule: Q01DX009 (ip), vehicle: saline 99 % of control | dose: 50.0 mg/kg/injection, schedule: Q01DX009 (ip), vehicle: saline 104 % of control | dose: 100.0 mg/kg/injection, schedule: Q01DX009 (ip), vehicle: saline 104 % of control

Cc1ccc(S(=O)(=O)OCC2OC(OC3(CO)OC(COS(=O)(=O)c4ccc(C)cc4)C(O)C3O)C(O)C(O)C2O)cc1 (stereo not drawn)
inactive: [4] 100 % of control | [5] 98 % of control | [6] 99 % of control

O=c1c2c(-c3cc(-c4ccccc4)nc4[nH]n(-c5ccccc5)c(=O)c34)cc(-c3ccccc3)nc2[nH]n1-c1ccccc1
inactive: [1] 96 % of control | [2] 107 % of control | [3] 96 % of control

O=C1OC(c2ccc([N+](=O)[O-])cc2)=N/C1=C\c1ccc(Cl)cc1
inactive: dose: 3.13 mg/kg/injection, schedule: Q01DX009 (ip), vehicle: Klucel (hydroxypropylcellulose) (HPC) 115 % of control | [7] 115 % of control | [8] 105 % of control and 88 % of control | dose: 25.0 mg/kg/injection, schedule: Q01DX009 (ip), vehicle: Klucel (hydroxypropylcellulose) (HPC) 88 % of control

CN(C)CC(CN(C)C)C(=O)c1ccc(OC2OC(CO)C(O)C(O)C2O)cc1 (stereo not drawn)
inactive: dose: 60.0 mg/kg/injection, schedule: Q01DX005 (ip), vehicle: saline 103 % of control | dose: 120.0 mg/kg/injection, schedule: Q01DX005 (ip), vehicle: saline 99 % of control | dose: 240.0 mg/kg/injection, schedule: Q01DX005 (ip), vehicle: saline 105 % of control

C1=C[N-]c2c3c(ccc2=C1)=CC=C[N-]3.C1=C[N-]c2c3c(ccc2=C1)=CC=C[N-]3.C1=C[N-]c2c3c(ccc2=C1)=CC=C[N-]3.[Co+3].[O-][Cl+3]([O-])([O-])O
inactive: dose: 7.5 mg/kg/injection, schedule: Q01DX005 (ip), vehicle: saline with Tween-80 98 % of control | dose: 15.0 mg/kg/injection, schedule: Q01DX005 (ip), vehicle: saline with Tween-80 98 % of control | dose: 30.0 mg/kg/injection, schedule: Q01DX005 (ip), vehicle: saline with Tween-80 104 % of control

CNC(=O)OCCC(OC(=O)NC)C1CCC2C3CCC4CCCCC4(C)C3CCC12C (stereo not drawn)
inactive: dose: 100.0 mg/kg/injection, schedule: Q04DX002 (ip), vehicle: Klucel (hydroxypropylcellulose) (HPC) 113 % of control | dose: 200.0 mg/kg/injection, schedule: Q04DX002 (ip), vehicle: Klucel (hydroxypropylcellulose) (HPC) 103 % of control | dose: 400.0 mg/kg/injection, schedule: Q04DX002 (ip), vehicle: Klucel (hydroxypropylcellulose) (HPC) 110 % of control

O=[N+]([O-])c1ccc(-c2nnn(Cc3ccco3)c2N2CCCCC2)cc1
inactive: [1] 105 % of control | [2] 105 % of control | [3] 107 % of control

CC(=O)OC1(C)C(=O)OC/C2=C/CN(C)CCC(OC(=O)C(O)(C(C)Cl)CC1C)C2=O (stereo not drawn)
inactive: [9] 103 % of control | [10] 100 % of control | [1] 99 % of control and 103 % of control

Cc1cc(O)c(C(c2cccnc2)c2c(O)cc(C)[nH]c2=O)c(=O)[nH]1
inactive: [4] 104 % of control | [5] 98 % of control | [6] 99 % of control

CNC1C(O)C(NC)C2OC3(O)C(=O)CC(C)OC3OC2C1O (stereo not drawn)
inactive: [11] 101 % of control | dose: 100.0 mg/kg/injection, schedule: Q01DX005 (ip), vehicle: saline 101 % of control | [12] 101 % of control | dose: 200.0 mg/kg/injection, schedule: Q01DX005 (ip), vehicle: saline 100 % of control | [13] 98 % of control

O=C1/C(=C/c2ccc(O)cc2)Oc2cc(O)ccc21
inactive: dose: 100.0 mg/kg/injection, schedule: Q01DX001 (ip), vehicle: saline with Tween-80 97 % of control | dose: 200.0 mg/kg/injection, schedule: Q01DX001 (ip), vehicle: saline with Tween-80 91 % of control | dose: 400.0 mg/kg/injection, schedule: Q01DX001 (ip), vehicle: saline with Tween-80 92 % of control

O=C1C=CC(=O)N1c1ccc(N2C(=O)C=CC2=O)cc1
inactive: dose: 0.78 mg/kg/injection, schedule: Q01DX009 (ip), vehicle: distilled water + Tween-80 102 % of control and 115 % of control | dose: 1.56 mg/kg/injection, schedule: Q01DX009 (ip), vehicle: distilled water + Tween-80 103 % of control and 120 % of control | dose: 3.13 mg/kg/injection, schedule: Q01DX009 (ip), vehicle: distilled water + Tween-80 121 % of control and 97 % of control | dose: 6.25 mg/kg/injection, schedule: Q01DX009 (ip), vehicle: distilled water + Tween-80 112 % of control and 118 % of control | dose: 12.5 mg/kg/injection, schedule: Q01DX009 (ip), vehicle: distilled water + Tween-80 105 % of control

CCCCCCCCCCCCCCCC(=O)N(CCCCCCCCCN(CCCN(C)C)C(=O)CCCCCCCCCCCCCCC)CCCN(C)C
inactive: dose: 3.13 mg/kg/injection, schedule: Q01DX009 (ip), vehicle: water 108 % of control | dose: 6.25 mg/kg/injection, schedule: Q01DX009 (ip), vehicle: water 109 % of control | dose: 12.5 mg/kg/injection, schedule: Q01DX009 (ip), vehicle: water 105 % of control | dose: 25.0 mg/kg/injection, schedule: Q01DX009 (ip), vehicle: water 93 % of control and 96 % of control | dose: 50.0 mg/kg/injection, schedule: Q01DX009 (ip), vehicle: water 103 % of control

NC1=NC(c2ccccc2)C=C(c2ccccc2)N1 (stereo not drawn)
inactive: dose: 12.5 mg/kg/injection, schedule: Q04DX002 (ip), vehicle: saline with Tween-80 104 % of control | dose: 25.0 mg/kg/injection, schedule: Q04DX002 (ip), vehicle: saline with Tween-80 103 % of control | [11] 103 % of control

CC1CCC(C(C)C)C(NC(=O)C[n+]2cccc(C(N)=O)c2)C1 (stereo not drawn)
inactive: dose: 12.5 mg/kg/injection, schedule: Q04DX002 (ip), vehicle: saline 99 % of control | dose: 25.0 mg/kg/injection, schedule: Q04DX002 (ip), vehicle: saline 105 % of control | dose: 50.0 mg/kg/injection, schedule: Q04DX002 (ip), vehicle: saline 101 % of control

CSc1nc2cc(S(=O)(=O)C(F)F)ccc2s1
inactive: [7] 94 % of control | [8] 94 % of control

CC1C(=O)NC(=O)CC1c1ccccc1 (stereo not drawn)
inactive: [12] 100 % of control | [13] 103 % of control | dose: 400.0 mg/kg/injection, schedule: Q04DX002 (ip), vehicle: saline with Tween-80 95 % of control

CC(C)c1ncc(CO)n1Cc1c(Cl)cccc1Cl
inactive: dose: 50.0 mg/kg/injection, schedule: Q01DX009 (ip), vehicle: Klucel (hydroxypropylcellulose) (HPC) 100 % of control | dose: 100.0 mg/kg/injection, schedule: Q01DX009 (ip), vehicle: Klucel (hydroxypropylcellulose) (HPC) 102 % of control | dose: 200.0 mg/kg/injection, schedule: Q01DX009 (ip), vehicle: Klucel (hydroxypropylcellulose) (HPC) 100 % of control

COc1cc2ccc3c(c2cc1OC)CN1CCCC1C3 (stereo not drawn)
inactive: dose: 6.25 mg/kg/injection, schedule: Q01DX005 (ip), vehicle: Klucel (hydroxypropylcellulose) (HPC) 100 % of control | [9] 96 % of control | [10] 100 % of control | [1] 105 % of control
